Data from the supplement of paper PMC7661543.
± gives the standard deviation of the averaged measurements.

The molecules below were run on HCC-38 (assay: relative cell number vs DMSO control (72 h) (% of DMSO); higher = less growth inhibition (more cells)). Conditions: sgRNA knockout: sgNT, 1000 nM.
Protocol: (§1)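 QMAP-Seq: a pool of 5 breast cancer cell lines (ZR-75-1, SKBR3, HCC-38, MDA-MB-231, BT-20), each carrying 12 doxycycline-inducible Cas9 sgRNA perturbations (11 knockouts plus non-targeting sgNT), was treated with compounds for 72 h at four 10-fold doses (10 nM-10 uM or 1 nM-1 uM range). Barcodes were amplified and sequenced, and cell number was interpolated from 293T spike-in standard curves. The result is expressed as % of the median of DMSO wells. Two biological replicates.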

SMILES	relative cell number
O=C(c1cc(Cc2n[nH]c(=O)c3ccccc23)ccc1F)N1CCN(C(=O)C2CC2)CC1 [Olaparib]	88.6 ± 1.6
O=C(O)C(Cc1c[nH]c2ccccc12)N1C(=O)c2ccccc2C1=O (stereo not given) [RG108]	83.03 ± 0.26
CN(C)c1cc(NC(=O)CNC(C)(C)C)c(O)c2c1C[C@H]1C[C@H]3[C@H](N(C)C)C(O)=C(C(N)=O)C(=O)[C@@]3(O)C(O)=C1C2=O [Tigecycline]	88.8 ± 2.6
Nc1ccccc1NC(=O)c1ccc(CNC(=O)OCc2cccnc2)cc1 [Entinostat]	64.8 ± 13
Cn1c(CCCC(=O)O)nc2cc(N(CCCl)CCCl)ccc21 [Bendamustine]	109 ± 17
COc1cc2nc(N3CCCN(C)CC3)nc(NC3CCN(Cc4ccccc4)CC3)c2cc1OC	85.8 ± 5.5
COC(=O)/C=C/C(=O)OC [DimethylFumarate]	91.4 ± 7.1
CCN1CCN(c2ccc(Nc3cc(N(C)C(=O)Nc4c(Cl)c(OC)cc(OC)c4Cl)ncn3)cc2)CC1 [BGJ398]	60.5 ± 4.7
O=c1ncccn1[C@@H]1O[C@H](CO)[C@@H](O)[C@H]1O [Zebularine]	107 ± 1.8
C[C@H]1CCC/C=C/[C@@H]2C[C@H](O)C[C@H]2[C@H](O)/C=C/C(=O)O1 [BrefeldinA]	35.3 ± 11
CS(=O)(=O)CCNCc1ccc(-c2ccc3ncnc(Nc4ccc(OCc5cccc(F)c5)c(Cl)c4)c3c2)o1 [Lapatinib]	89.7 ± 7.5

Same assay, conditions: sgRNA knockout: sgNT, 10000 nM

SMILES	relative cell number
O=C(c1cc(Cc2n[nH]c(=O)c3ccccc23)ccc1F)N1CCN(C(=O)C2CC2)CC1 [Olaparib]	62.5 ± 0.89
O=C(O)C(Cc1c[nH]c2ccccc12)N1C(=O)c2ccccc2C1=O (stereo not given) [RG108]	97.2 ± 1.7
CN(C)c1cc(NC(=O)CNC(C)(C)C)c(O)c2c1C[C@H]1C[C@H]3[C@H](N(C)C)C(O)=C(C(N)=O)C(=O)[C@@]3(O)C(O)=C1C2=O [Tigecycline]	102 ± 6.5
Nc1ccccc1NC(=O)c1ccc(CNC(=O)OCc2cccnc2)cc1 [Entinostat]	36.8 ± 3.2
Cn1c(CCCC(=O)O)nc2cc(N(CCCl)CCCl)ccc21 [Bendamustine]	115 ± 4.3
COc1cc2nc(N3CCCN(C)CC3)nc(NC3CCN(Cc4ccccc4)CC3)c2cc1OC	5.39 ± 3.1
COC(=O)/C=C/C(=O)OC [DimethylFumarate]	91.3 ± 20
CCN1CCN(c2ccc(Nc3cc(N(C)C(=O)Nc4c(Cl)c(OC)cc(OC)c4Cl)ncn3)cc2)CC1 [BGJ398]	58.5 ± 0.79
O=c1ncccn1[C@@H]1O[C@H](CO)[C@@H](O)[C@H]1O [Zebularine]	115 ± 7.4
C[C@H]1CCC/C=C/[C@@H]2C[C@H](O)C[C@H]2[C@H](O)/C=C/C(=O)O1 [BrefeldinA]	23.6 ± 7.5
CS(=O)(=O)CCNCc1ccc(-c2ccc3ncnc(Nc4ccc(OCc5cccc(F)c5)c(Cl)c4)c3c2)o1 [Lapatinib]	60.2 ± 1.2

These molecules were tested on MDA-MB-231 in the same assay as above. Conditions: sgRNA knockout: sgNT, 10 nM.
Protocol: as §1

SMILES	relative cell number
O=C(c1cc(Cc2n[nH]c(=O)c3ccccc23)ccc1F)N1CCN(C(=O)C2CC2)CC1 [Olaparib]	87.3 ± 12
O=C(O)C(Cc1c[nH]c2ccccc12)N1C(=O)c2ccccc2C1=O (stereo not given) [RG108]	96.8 ± 28
CN(C)c1cc(NC(=O)CNC(C)(C)C)c(O)c2c1C[C@H]1C[C@H]3[C@H](N(C)C)C(O)=C(C(N)=O)C(=O)[C@@]3(O)C(O)=C1C2=O [Tigecycline]	117 ± 16
Nc1ccccc1NC(=O)c1ccc(CNC(=O)OCc2cccnc2)cc1 [Entinostat]	90.4 ± 17
Cn1c(CCCC(=O)O)nc2cc(N(CCCl)CCCl)ccc21 [Bendamustine]	111 ± 13
COc1cc2nc(N3CCCN(C)CC3)nc(NC3CCN(Cc4ccccc4)CC3)c2cc1OC	123 ± 5.1
COC(=O)/C=C/C(=O)OC [DimethylFumarate]	107 ± 36
CCN1CCN(c2ccc(Nc3cc(N(C)C(=O)Nc4c(Cl)c(OC)cc(OC)c4Cl)ncn3)cc2)CC1 [BGJ398]	81.7 ± 12
O=c1ncccn1[C@@H]1O[C@H](CO)[C@@H](O)[C@H]1O [Zebularine]	108 ± 38
C[C@H]1CCC/C=C/[C@@H]2C[C@H](O)C[C@H]2[C@H](O)/C=C/C(=O)O1 [BrefeldinA]	108 ± 22
CS(=O)(=O)CCNCc1ccc(-c2ccc3ncnc(Nc4ccc(OCc5cccc(F)c5)c(Cl)c4)c3c2)o1 [Lapatinib]	120 ± 15

Same assay, conditions: sgRNA knockout: sgNT, 100 nM

SMILES	relative cell number
O=C(c1cc(Cc2n[nH]c(=O)c3ccccc23)ccc1F)N1CCN(C(=O)C2CC2)CC1 [Olaparib]	83.4 ± 1.6
O=C(O)C(Cc1c[nH]c2ccccc12)N1C(=O)c2ccccc2C1=O (stereo not given) [RG108]	96.5 ± 4
CN(C)c1cc(NC(=O)CNC(C)(C)C)c(O)c2c1C[C@H]1C[C@H]3[C@H](N(C)C)C(O)=C(C(N)=O)C(=O)[C@@]3(O)C(O)=C1C2=O [Tigecycline]	92.1 ± 21
Nc1ccccc1NC(=O)c1ccc(CNC(=O)OCc2cccnc2)cc1 [Entinostat]	115 ± 39
Cn1c(CCCC(=O)O)nc2cc(N(CCCl)CCCl)ccc21 [Bendamustine]	123 ± 10
COc1cc2nc(N3CCCN(C)CC3)nc(NC3CCN(Cc4ccccc4)CC3)c2cc1OC	94.5 ± 18
COC(=O)/C=C/C(=O)OC [DimethylFumarate]	88.3 ± 9.9
CCN1CCN(c2ccc(Nc3cc(N(C)C(=O)Nc4c(Cl)c(OC)cc(OC)c4Cl)ncn3)cc2)CC1 [BGJ398]	83.1 ± 16
O=c1ncccn1[C@@H]1O[C@H](CO)[C@@H](O)[C@H]1O [Zebularine]	121 ± 22
C[C@H]1CCC/C=C/[C@@H]2C[C@H](O)C[C@H]2[C@H](O)/C=C/C(=O)O1 [BrefeldinA]	14.1 ± 7.9
CS(=O)(=O)CCNCc1ccc(-c2ccc3ncnc(Nc4ccc(OCc5cccc(F)c5)c(Cl)c4)c3c2)o1 [Lapatinib]	90 ± 36

Same assay, conditions: sgRNA knockout: sgNT, 1000 nM

SMILES	relative cell number
O=C(c1cc(Cc2n[nH]c(=O)c3ccccc23)ccc1F)N1CCN(C(=O)C2CC2)CC1 [Olaparib]	93.9 ± 22
O=C(O)C(Cc1c[nH]c2ccccc12)N1C(=O)c2ccccc2C1=O (stereo not given) [RG108]	80.5 ± 17
CN(C)c1cc(NC(=O)CNC(C)(C)C)c(O)c2c1C[C@H]1C[C@H]3[C@H](N(C)C)C(O)=C(C(N)=O)C(=O)[C@@]3(O)C(O)=C1C2=O [Tigecycline]	123 ± 18
Nc1ccccc1NC(=O)c1ccc(CNC(=O)OCc2cccnc2)cc1 [Entinostat]	39.4 ± 5.7
Cn1c(CCCC(=O)O)nc2cc(N(CCCl)CCCl)ccc21 [Bendamustine]	95.8 ± 17
COc1cc2nc(N3CCCN(C)CC3)nc(NC3CCN(Cc4ccccc4)CC3)c2cc1OC	80.2 ± 13
COC(=O)/C=C/C(=O)OC [DimethylFumarate]	91.2 ± 7.2
CCN1CCN(c2ccc(Nc3cc(N(C)C(=O)Nc4c(Cl)c(OC)cc(OC)c4Cl)ncn3)cc2)CC1 [BGJ398]	116 ± 2.1
O=c1ncccn1[C@@H]1O[C@H](CO)[C@@H](O)[C@H]1O [Zebularine]	93.6 ± 0.27
C[C@H]1CCC/C=C/[C@@H]2C[C@H](O)C[C@H]2[C@H](O)/C=C/C(=O)O1 [BrefeldinA]	7.55 ± 2.6
CS(=O)(=O)CCNCc1ccc(-c2ccc3ncnc(Nc4ccc(OCc5cccc(F)c5)c(Cl)c4)c3c2)o1 [Lapatinib]	83.6 ± 3
